Measurements as given in US4749686A, “Combinations of renal vasodilators and α1 -adrenergic or ganglionic blocking agents and methods for treating diseases” (New York Medical College, priority 1986, dated 1988).
Entries after “also recorded” stand apart in the source; their conditions may differ.

Tested on: conscious dogs
Assay: one-hour infusion of atriopeptin 24 in conscious dogs, renal hemodynamics and function, before and after α1-adrenergic receptor blockade
Format: in vivo, dog
Conditions: prazosin 1 mg/kg 40 minutes prior to one-hour atriopeptin 24 infusion
Method: In this example, I first infused conscious dogs for one hour with atriopeptin 24 and measured the effects on renal hemodynamics and function. At least one week later, I treated the same dogs with the α1 -adrenergic blocking agent, prazosin, 40 minutes prior to a one-hour atriopeptin 24 infusion.
The experiments were conducted using the following techniques and devices: female mongrel dogs were instrumented using sterile surgical techniques under sodium pentobarbital anesthesia (25 mg/kg). To measure renal blood flow, a Doppler ultrasonic flow transducer (Parks Electronics) was placed around the left renal artery. […]
Arterial pressure was recorded using the implanted catheter attached to a Statham P23Db strain gauge transducer. Renal blood flow was measured using an ultrasonic flowmeter (Model 806A, Parks Electronics) and the implanted Doppler flow transducer. Phasic arterial pressure and renal blood flow were recorded on magnetic tape (Bell and Howell 3700B) and played back on a direct writing oscillograph (Gould-Brush 2800S). […] Heart rate was calculated using a cardiotachometer (Beckman Model 80574) from the pressure pulse interval.
To measure renal function, urine samples were taken from the dogs, urine volume was measured and the concentration of urine and plasma sodium (Na) and potassium (K) was assayed using a flame photometer (Instrumentation Laboratories, Model 343). […]

## COc1cc2nc(N3CCN(C(=O)c4ccco4)CC3)nc(N)c2cc1OC [prazosin]
  effect of α1-adrenergic blockade on renal vasodilation produced by atriopeptin 24: renal blood flow remained elevated for the duration of the atriopeptin 24 infusion; also recorded: caused a sustained renal vasodilation
